Results taken from doi:10.1101/2024.08.19.608619, “Discovery of potent SARS-CoV-2 nsp3 macrodomain inhibitors uncovers lack of translation to cellular antiviral response” (bioRxiv, 2024).
Converted amounts (≈) assume the structure as drawn. “And” between values parts separate entries of the source, which are not always exact repeats. Equal entries are not always repeated. Where two headings read alike, the source gives them in different places.

Tests used:
[1] = test system: SARS-CoV-2, isolate USA-WA1/2020; assay: microbe, parasite or virus in culture; assay type: cell-based; conditions: HeLa-ACE2 SARS-CoV-2 antiviral effect without P-gp inhibitor
SARS-CoV-2 = assay: Antiviral effect in iPSC-derived pneumocyte system; assay type: cell-based; conditions: iPSC pneumocytes SARS-CoV-2 antiviral effect
[2] = Hepatic microsomal stability, HLM; assay type: in vitro ADME, human; conditions: In vitro human liver microsomal stability; for perc_remaining_no_cofactor: no cofactor
[3] = Hepatic microsomal stability, MLM; assay type: in vitro ADME; conditions: In vitro mouse liver microsomal stability; for perc_remaining_no_cofactor: no cofactor
iPSC pneumocytes = iPSC pneumocytes cytotoxicity; assay type: cell-based; conditions: protocol iPSC pneumocytes cytotoxicity
Description: Supplement media-1.zip/Cytotoxicity.csv, table | column: cc10; cc50; perc_min_measured; perc_max_measured

HeLa-ACE2 cells = conditions: protocol HeLa-ACE2 cytotoxicity
LogD = conditions: pH 7.4; In vitro LogD
in vitro = conditions: human, hela-ace2 cells, 50.0
[4] = In vitro kinetic solubility; conditions: In vitro kinetic solubility, ph 7.4
[5] = Permeability Papp (AB) MDR1/MDCKII; conditions: In vitro MDR1-MDCKII permeability, mean; for papp_a_to_b_mean: A to B; for perc_recovery_a_to_b_mean: recovery A to B
SARS-CoV-2 nsp3-mac1 [6] = target: T1, SARS-CoV-2 nsp3-mac1 (Severe acute respiratory syndrome coronavirus 2, UniProt P0DTD1); assay: biochemical; conditions: for hill_slope: TR-FRET dose response curve fit; for perc_max_measured: highest measured response; for perc_min_measured: lowest measured response
SARS-CoV-2 nsp3-mac1 [7] = target: T1, SARS-CoV-2 nsp3-mac1; assay: biochemical; assay type: biochemical; conditions: for inhibition at 50 µM / inhibition at 100 µM: read-out: perc_inhibition_mean; for perc_inhibition_mean: SARS-CoV-2 nsp3 macrodomain TR-FRET single point, concentration 50.0 uM
SARS-CoV-2 nsp3-mac1 [8] = target: T1, SARS-CoV-2 nsp3-mac1; assay: biochemical; parameters: SARS-CoV-2 nsp3 macrodomain TR-FRET single point, per cent inhibition, n=2
[9] = maximum measured response of dose series
[10] = minimum measured response of dose series
[11] = highest measured response of the dose series
[12] = lowest measured response of the dose series
[13] = IC50, nsp3-mac1 activity, Figures 1-3 and text
[14] = TR-FRET dose response, supplement, read-out: ic50

## Cn1ncc(-c2cc3c(N[C@@H](c4ccc5c(c4)OCCO5)C(C)(C)C)ncnc3[nH]2)c1C#N (racemic) [ASAP-0008484]
[1]; [9]
  perc_max_measured: 91.316% and 93.387%
[1]; [10]
  perc_min_measured: 1.9% and 1.413%
[1]; read-out: ec50
  EC50: 1.05 µM and 1.12 µM
[1]; read-out: ec90
  EC90: 2.12 µM and 3.3 µM
SARS-CoV-2
  EC50: 7.67 µM
  EC90: 13.4 µM
SARS-CoV-2; [9]
  perc_max_measured: 131.986%
SARS-CoV-2; [10]
  perc_min_measured: 2.165%
[2]
  clint: 85.0 µL/min/mg
  perc_remaining: 22.0%
  t_half: 19.6 min
  perc_remaining_no_cofactor: 109.0%
[3]
  clint: 199.0 µL/min/mg
  perc_remaining: 4.0%
  t_half: 8.4 min
  perc_remaining_no_cofactor: 100.0%
iPSC pneumocytes
  CC50: 48.6 µM
  cc10: 41.767 µM
iPSC pneumocytes; [11]
  perc_max_measured: 107.062%
iPSC pneumocytes; [12]
  perc_min_measured: 63.039%
HeLa-ACE2 cells
  CC50: > 20 µM
  cc10: > 20.0 µM
HeLa-ACE2 cells; [11]
  perc_max_measured: 117.871% and 98.808%
HeLa-ACE2 cells; [12]
  perc_min_measured: 61.501% and 55.999%
LogD
  logd: 2.9
In vitro
  CC50 at 24 h: > 20 µM
[4]
  solubility_mean: 25 µM (≈ 11.1 µg/mL)
[5]
  papp_a_to_b_mean: 2.79 ×10⁻⁶ cm/s
  perc_recovery_a_to_b_mean: 39.4%

## Cc1[nH]c2ncnc(NC(=O)C3CC=CC3)c2c1C [ASAP-0000025]
SARS-CoV-2 nsp3-mac1 [6]; [13]
  IC50: 42 µM
SARS-CoV-2 nsp3-mac1 [7]
  inhibition at 50 µM: 73.1%

## CC(C)C(Nc1ncnc2n[nH]cc12)c1cnn(C)c1 (stereo not drawn) [ASAP-0000031]
SARS-CoV-2 nsp3-mac1 [6]; [13]
  IC50: 43 µM
SARS-CoV-2 nsp3-mac1 [7]
  inhibition at 50 µM: 63.5%

## O=C(Nc1ccccc1)Nc1ccc(C(=O)NC2c3cccc(O)c3CC2C(=O)O)cc1 (stereo not drawn) [ASAP-0000132]
SARS-CoV-2 nsp3-mac1 [6]
  hill_slope: 1.06
SARS-CoV-2 nsp3-mac1 [6]; TR-FRET dose response
  perc_max_measured: 99.438%
  perc_min_measured: -1.931%
SARS-CoV-2 nsp3-mac1 [6]; TR-FRET dose response, supplement
  pic50: 5.991
SARS-CoV-2 nsp3-mac1 [6]; [14]
  IC50: 1.02 µM
[2]
  clint: 9.0 µL/min/mg
  perc_remaining: 123.0%
  t_half: 187.2 min
  perc_remaining_no_cofactor: 96.0%
[3]
  clint: 2.0 µL/min/mg
  perc_remaining: 111.0%
  t_half: 1066.4 min
  perc_remaining_no_cofactor: 99.0%
SARS-CoV-2 nsp3-mac1 [7]
  perc_inhibition_mean: 99.903%
LogD
  logd: 0.12
SARS-CoV-2 nsp3-mac1 [8]; read-out: perc_inhibition_mean, batch_name=ASAP-0000132-001
  inhibition at 50 µM: 99.9%
[4]
  solubility_mean: 319 µM (≈ 138 µg/mL)
[5]
  papp_a_to_b_mean: 0.7 ×10⁻⁶ cm/s
  perc_recovery_a_to_b_mean: 91.0%

## O=C(NCc1cc2n(n1)CCCC2)c1cc2cncnc2[nH]1 [ASAP-0000134]
SARS-CoV-2 nsp3-mac1 [6]; TR-FRET dose response
  perc_max_measured: 2.258%
  perc_min_measured: -11.392%
SARS-CoV-2 nsp3-mac1 [6]; [14]
  IC50: > 124 µM
SARS-CoV-2 nsp3-mac1 [7]
  perc_inhibition_mean: 4.173%
SARS-CoV-2 nsp3-mac1 [8]; read-out: perc_inhibition_mean, batch_name=ASAP-0000134-001
  inhibition at 50 µM: 4.17%

## O=C(c1cccc(Br)c1)N1CCC(c2ccn3ncc(C(=O)N4CCCCC4)c3c2)CC1 [ASAP-0000191]
SARS-CoV-2 nsp3-mac1 [6]
  hill_slope: 0.907
SARS-CoV-2 nsp3-mac1 [6]; TR-FRET dose response
  perc_max_measured: 41.392%
  perc_min_measured: -0.981%
SARS-CoV-2 nsp3-mac1 [6]; [14]
  IC50: > 124 µM
SARS-CoV-2 nsp3-mac1 [7]
  perc_inhibition_mean: 32.136%
SARS-CoV-2 nsp3-mac1 [8]; read-out: perc_inhibition_mean, batch_name=ASAP-0000191-001
  inhibition at 50 µM: 32.1%

## O=C(OCc1cccc(Cl)n1)c1ncnc2[nH]ccc12 [ASAP-0000193]
SARS-CoV-2 nsp3-mac1 [6]
  hill_slope: 1.685
SARS-CoV-2 nsp3-mac1 [6]; TR-FRET dose response
  perc_max_measured: 38.614%
  perc_min_measured: -4.676%
SARS-CoV-2 nsp3-mac1 [6]; [14]
  IC50: > 124 µM
SARS-CoV-2 nsp3-mac1 [7]
  perc_inhibition_mean: 11.426%
SARS-CoV-2 nsp3-mac1 [8]; read-out: perc_inhibition_mean, batch_name=ASAP-0000193-001
  inhibition at 50 µM: 11.4%

## OC[C@@H](Nc1ncnc2[nH]c(I)cc12)c1ccccc1 [ASAP-0000197]
SARS-CoV-2 nsp3-mac1 [6]
  hill_slope: 1.082
SARS-CoV-2 nsp3-mac1 [6]; TR-FRET dose response
  perc_max_measured: 42.06%
  perc_min_measured: -3.652%
SARS-CoV-2 nsp3-mac1 [6]; [14]
  IC50: > 124 µM
SARS-CoV-2 nsp3-mac1 [7]
  perc_inhibition_mean: 26.134%
SARS-CoV-2 nsp3-mac1 [8]; read-out: perc_inhibition_mean, batch_name=ASAP-0000197-001
  inhibition at 50 µM: 26.1%

## O=C(O)c1cscc1C(=O)N1CCC(c2ccn3ncc(C(=O)N4CCCCC4)c3c2)CC1 [ASAP-0000259]
SARS-CoV-2 nsp3-mac1 [6]; [13]
  IC50: 44 µM
SARS-CoV-2 nsp3-mac1 [7]
  inhibition at 50 µM: 47.7%
  inhibition at 100 µM: 66.7%

## Cc1[nH]c2ncnc(NC(=O)c3ccncc3Cl)c2c1C [ASAP-0000266]
SARS-CoV-2 nsp3-mac1 [6]; [13]
  IC50: 25 µM
SARS-CoV-2 nsp3-mac1 [7]
  inhibition at 50 µM: 69.6%
  inhibition at 100 µM: 85.6%
